Laboratory results reported in US11306064B2, “Benzothia(di)azepine compounds and their use as bile acid modulators” (Albireo AB, priority 2018, dated 2022).

Key:
Type in all cases: cell-based
Human LBAT = target: T1, Human LBAT (Homo sapiens, UniProt Q14973); assay: LBAT (h/m) assay: 3H-taurocholic acid uptake in human LBAT-overexpressing cells; details: 0.3 μM 3H-taurocholic acid and 7.5 μM cold taurocholic acid, 20 minutes, read-out: hLBAT IC50
T1 construct: expressed in transfected cells; kept under Geneticin selection
T1 sequence (Q14973 1-349): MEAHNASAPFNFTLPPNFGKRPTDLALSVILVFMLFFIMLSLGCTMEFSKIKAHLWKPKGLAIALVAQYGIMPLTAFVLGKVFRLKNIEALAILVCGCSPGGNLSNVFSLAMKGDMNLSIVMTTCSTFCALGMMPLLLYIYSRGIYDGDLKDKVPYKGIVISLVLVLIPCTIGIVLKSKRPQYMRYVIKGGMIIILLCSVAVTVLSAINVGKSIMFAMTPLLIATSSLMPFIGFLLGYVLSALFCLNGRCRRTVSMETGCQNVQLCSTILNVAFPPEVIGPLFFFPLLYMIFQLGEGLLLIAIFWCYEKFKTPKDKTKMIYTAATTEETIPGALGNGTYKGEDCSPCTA
Experimental: LBAT (h/m) Assay Protocol
20,000 cells (Human or Mouse LBAT-overexpressing cells) were seeded in 96-wells plate (Corning CLS3809) in 100 μL MEM-alpha medium (Gibco 12571-063) supplemented with 10% FBS (Gibco 10438026) containing Geneticin (Gibco 10131-027) (1 mg/mL) and incubated at 37° C. in 5% CO2 for 24 hours. After incubation, media was decanted from the wells and cells were washed two times with 300 μL of basal MEM-alpha medium (FBS-free). After decanting basal MEM-alpha medium each time, plates were tapped against paper towel to ensure maximum removal of residual media. For human LBAT, incubation mix was prepared by adding test inhibitor dilutions (3-fold serial dilution in DMSO (Sigma D2650), 10 points) in MEM-alpha (without FBS) containing 0.3 μM 3H-taurocholic acid (ARC ART-1368) and 7.5 μM cold taurocholic acid (Sigma T4009) (maintaining 0.2% final DMSO concentration). For mouse LBAT, incubation mix was prepared by adding test inhibitor dilutions (3-fold serial dilution in DMSO, 10 points) in MEM-alpha (without FBS) containing 0.3 μM 3H-taurocholic acid and 25 μM cold taurocholic acid maintaining 0.2% final DMSO concentration).
50 μL of incubation mix containing test inhibitors was then added to the wells (in duplicate) and the plates were incubated for 20 minutes in a CO2 incubator at 37° C. After incubation, the reaction was stopped by keeping the plates on ice water mix for 2-3 minutes and then the incubation mix was aspirated completely from the wells. The wells were washed two times with 250 μL of chilled unlabelled 1 mM taurocholic acid dissolved in HEPES (Gibco 15630080)-buffered (10 mM) HBSS (Gibco 14175079) (pH 7.4). The plates were tapped against a paper towel after every wash to ensure maximum removal of blocking buffer.
(§1) 100 μL of MicroScint-20 (PerkinElmer 6013621) was added to the wells and kept overnight at room temperature before reading the plates in TopCount NXT™ Microplate Scintillation and Luminescence Counter from PerkinElmer under 3H Test protocol (set at 120 seconds reading time per well, with normal plate orientation).
(§2) Preparation of Test Compound Dilutions
(§3) All test compounds were provided in powder form at room temperature. 10 mM DMSO stocks of the test compounds were prepared, aliquoted and stored at −20° C. From the 10 mM DMSO stock of the compounds, a 3-fold serial dilution in DMSO was prepared to get a total of 10 dilutions of the test compounds. 0.5 μL of this dilution in DMSO was added to 250 μL of FBS-free basal media containing 3H-taurocholic acid and cold taurocholic acid to prepare the incubation mixture.

HepaRG cells = assay: HepaRG-based assay: 3H-taurocholic acid uptake in differentiated HepaRG cells; details: Homo sapiens, HepaRG, 0.3 μM 3H-taurocholic acid and 7.5 μM cold taurocholic acid, 30 minutes
Experimental: HepaRG-Based Assay Protocol
A cryopreserved vial of differentiated HepaRG cells (Biopredic International HPR116080) was thawed in HepaRG Thawing/Plating/General Purpose Medium (Biopredic International ADD670C) supplemented with 200 mM Glutamax (Gibco 35050061) following the protocol provided by Biopredic International. 70,000 cells per well were seeded in 96-wells plate (Corning CLS3809) in 100 μL of HepaRG Thawing/Plating/General Purpose Medium supplemented with 200 mM Glutamax and incubated at 37° C. in 5% CO2 for 24 hours. Post incubation, the seeding media was replaced by HepaRG Maintenance/Metabolism Medium (Biopredic International ADD620C) and incubated for 6 days, with fresh HepaRG Maintenance/Metabolism Medium replenishment every 48 hours. After 7 days incubation post seeding, incubation media was decanted from the wells and cells were washed two times with 250 μL of William's E Basal Media (Gibco 12551032). After decanting William's E Basal Media each time, plates were tapped against paper towel to ensure maximum removal of residual media.
Incubation mix was prepared by adding test inhibitor dilutions (3-fold serial dilution in DMSO (Sigma D2650)) in William's E media (basal) containing 0.3 μM 3H-taurocholic acid (ARC ART-1368) and 7.5 μM cold taurocholic acid (Sigma T4009) (maintaining 0.2% final DMSO concentration). 50 μl of incubation mix containing test inhibitors was then added to the wells (in duplicate) and the plates were incubated for 30 minutes in 5% CO2 incubator at 37° C. After incubation, the reaction was stopped by keeping the plates on ice water mix for 2-3 minutes and then the incubation mix was aspirated completely from the wells. The wells were washed two times with 250 μL of chilled unlabelled 1 mM taurocholic acid dissolved in HEPES (Gibco 15630080)-buffered (10 mM) HBSS (Gibco 14175079) (pH 7.4). The plates were tapped against a paper towel after every wash to ensure maximum removal of blocking buffer.
as §1, §2, §3

Human ASBT = target: T2, Human ASBT (Homo sapiens, UniProt Q12908); assay: ASBT (h/m) assay: 3H-taurocholic acid uptake in human ASBT-overexpressing cells; details: 0.25 μM 3H-taurocholic acid and 5 μM cold taurocholic acid, 20 minutes, read-out: hASBT IC50
T2 construct: expressed in transfected cells; kept under Puromycin selection
T2 sequence (Q12908 1-348): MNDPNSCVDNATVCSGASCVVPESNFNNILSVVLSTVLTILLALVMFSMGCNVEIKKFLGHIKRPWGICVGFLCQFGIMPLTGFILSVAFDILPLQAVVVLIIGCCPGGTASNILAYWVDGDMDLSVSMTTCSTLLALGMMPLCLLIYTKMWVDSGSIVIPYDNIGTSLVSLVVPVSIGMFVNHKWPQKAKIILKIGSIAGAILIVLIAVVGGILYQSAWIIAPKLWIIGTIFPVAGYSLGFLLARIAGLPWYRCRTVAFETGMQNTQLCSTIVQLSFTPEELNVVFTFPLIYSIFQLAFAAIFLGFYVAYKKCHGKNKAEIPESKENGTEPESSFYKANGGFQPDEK
Experimental: ASBT (h/m) Assay Protocol
10,000 cells (Human or Mouse ASBT-overexpressing cells) were seeded in 96-wells plate (Corning CLS3809) in 200 μL MEM-alpha medium (Gibco 12571-063) supplemented with 10% FBS (Gibco 10438026) containing Puromycin (Gibco A1113803) (10 μg/mL) and incubated at 37° C. in 5% CO2 for 48 hours. After incubation, media was decanted from the wells and cells were washed two times with 300 μL of basal MEM-alpha medium (FBS-free). After decanting basal MEM-alpha medium each time, plates were tapped against paper towel to ensure maximum removal of residual media. Test inhibitor dilutions (highest test concentration being 10 μM, 3-fold serial dilution, 10 points) prepared in DMSO (Sigma D2650) were added in incubation mix (maintaining 0.2% final DMSO concentration) containing 0.25 μM 3H-taurocholic acid (ARC ART-1368) and 5 μM of cold taurocholic acid (Sigma T4009). 50 μL of incubation mix containing test inhibitors was then added to the wells (in duplicate) and the plates were incubated for 20 minutes in a CO2 incubator at 37° C. After incubation, the reaction was stopped by keeping the plates on ice water mix for 2-3 minutes and then the incubation mix was aspirated completely from the wells. The wells were washed two times with 250 μL of chilled unlabelled 1 mM taurocholic acid dissolved in HEPES (Gibco 15630080)-buffered (10 mM) HBSS (Gibco 14175079) (pH 7.4). The plates were tapped against a paper towel after every wash to ensure maximum removal of blocking buffer.
100 μL of MicroScint-20 (PerkinElmer 6013621) was added to the wells and kept overnight at room temperature before reading the plates in TopCount NXT™ Microplate Scintillation and Luminescence Counter from PerkinElmer under 3H Test protocol (set at 120 seconds reading time per well).
as §2, §3

SMILES | IC50 (Human LBAT) [nM] | IC50 (HepaRG cells) [nM] | IC50 (Human ASBT) [nM]
CCCCC1(CC)CN(c2ccc(NC(=O)C3CCCC3)cc2)c2cc(SC)c(O/C=C/C(=O)O)cc2S(=O)(=O)C1 (centres unmarked) [Example 38, (E)-3-((3-butyl-5-(4-(cyclopentanecarboxamido)phenyl)-3-ethyl-7-(methylthio)-1,1-dioxido-2,3,4,5-tetrahydro-1,5-benzothiazepin-8-yl)oxy)acrylic Acid] | 122 | 454 | 
CCCCC1(CCCC)CN(c2ccc(NC(=O)C3CC3)cc2)c2cc(SC)c(O/C=C(\F)C(=O)O)cc2S(=O)(=O)C1 [Example 36, (Z)-3-((3,3-dibutyl-5-(4-(cyclopropanecarboxamido)phenyl)-7-(methylthio)-1,1-dioxido-2,3,4,5-tetrahydro-1,5-benzothiazepin-8-yl)oxy)-2-fluoroacrylic Acid] | 39 | 877 | 
CCCCC1(CC)CN(c2ccc(NC(=O)OC(C)(C)C)cc2)c2cc(Br)c(O/C=C/C(=O)O)cc2S(=O)(=O)C1 (centres unmarked) [Example 23, (E)-3-((7-bromo-5-(4-((tert-butoxycarbonyl)amino)phenyl)-3-butyl-3-ethyl-1,1-dioxido-2,3,4,5-tetrahydro-1,5-benzothiazepin-8-yl)oxy)acrylic Acid] | 100 | 1200 | 
CCCCC1(CCCC)CN(c2ccc(O)cc2)c2cc(SC)c(O/C=C/C(=O)O)cc2S(=O)(=O)C1 [Example 20, (E)-3-((3,3-dibutyl-5-(4-hydroxyphenyl)-7-(methylthio)-1,1-dioxido-2,3,4,5-tetrahydro-1,5-benzothiazepin-8-yl)oxy)acrylic Acid] | 1300 |  | 20
CCCCC1(CC)CN(c2ccccc2)c2cc(Br)c(O/C=C/C(=O)O)cc2S(=O)(=O)C1 (single isomer, unassigned) [Example 5, (E)-3-((7-bromo-3-butyl-3-ethyl-1,1-dioxido-5-phenyl-2,3,4,5-tetrahydro-1,5-benzothiazepin-8-yl)oxy)acrylic acid] | 290 |  | 1230
CCCCC1(CC)CN(c2ccccc2)c2cc(N(C)C)c(O/C=C/C(=O)O)cc2S(=O)(=O)C1 (centres unmarked) [Example 80, (E)-3-((3-butyl-7-(dimethylamino)-3-ethyl-1,1-dioxido-5-phenyl-2,3,4,5-tetrahydro-1,5-benzothiazepin-8-yl)oxy)acrylic Acid] | 828 |  | 7.5
CCCCC1(CCCC)CN(c2ccc(Br)cc2)c2cc(SC)c(O/C=C(\F)C(=O)O)cc2S(=O)(=O)C1 [Example 94, (Z)-3-((5-(4-bromophenyl)-3,3-dibutyl-7-(methylthio)-1,1-dioxido-2,3,4,5-tetrahydro-1,5-benzothiazepin-8-yl)oxy)-2-fluoroacrylic Acid] | 96 |  | 42
CCCCC1(CCCC)CN(c2ccccc2)c2cc(C#N)c(O/C=C/C(=O)O)cc2S(=O)(=O)C1 [Example 82, (E)-3-((3,3-dibutyl-7-cyano-1,1-dioxido-5-phenyl-2,3,4,5-tetrahydro-1,5-benzothiazepin-8-yl)oxy)acrylic Acid] | 270 |  | 873
CCCCC1(CCCC)CN(c2ccccc2)c2cc(N(C)C)c(O/C=C/C(=O)O)cc2S(=O)(=O)C1 [Example 8, (E)-3-((3,3-dibutyl-7-(dimethylamino)-1,1-dioxido-5-phenyl-2,3,4,5-tetrahydro-1,5-benzothiazepin-8-yl)oxy)acrylic Acid] | 1470 |  | 40
CCCC[C@]1(CC)CN(c2ccccc2)c2cc(NC)c(O/C=C/C(=O)O)cc2S(=O)(=O)C1 (single isomer, unassigned) [Example 93] | 3160 |  | 52
CCCC[C@@]1(CC)CN(c2ccccc2)c2cc(SC)c(O/C=C\C(=O)O)cc2S(=O)(=O)C1 (single isomer, unassigned) [Example 60] | 4220 |  | 39
CCCC[C@@]1(CC)CN(c2ccccc2)c2cc(NC)c(O/C=C/C(=O)O)cc2S(=O)(=O)C1 (single isomer, unassigned) [Example 92] | 1470 |  | 748
CCCCC1(CCCC)CN(c2ccccc2)c2cc(SC)c(O/C(C)=C/C(=O)O)cc2S(=O)(=O)N1 [Example 83, (E)-3-((3,3-dibutyl-7-(methylthio)-1,1-dioxido-5-phenyl-2,3,4,5-tetrahydro-1,2,5-benzothiadiazepin-8-yl)oxy)but-2-enoic Acid] | 4920 |  | 18
